Read-outs that look alike come from different tables or passages of the source.
Assays:
[1] = target: T1, full-length human GCN2 enzyme (Homo sapiens, UniProt Q9P2K8); assay: GCN2 enzyme inhibition, LanthaScreen TR-FRET Kinase Activity assay (10 μM and 300 μM ATP); type: biochemical; settings: mean of replicate assays
T1 construct: purchased Carna Bioscience
Experimental: Biological and Pharmacokinetic Testing (a) GCN2 Enzyme Inhibition (10 μM and 300 μM Assays) Assay Protocol Overview:
The inhibitory activity of the Example compounds towards GCN2 enzyme was measured according to the description below, using a LanthaScreen TR-FRET (Time Resolved Fluorescence Resonance Energy Transfer) Kinase Activity assay distributed by ThermoFisher Scientific.
The full-length human GCN2 enzyme (UniProt accession number Q9P2K8) was used for all experiments (Carna Bioscience). The TR-FRET pair was composed of GFP-eIF2α and LanthaScreen Terbium-labeled anti-peIF2α (pSer52) Antibody.
Each example compound was dissolved in DMSO (0.15 mM) and dispensed in a 384-well plate by a D300 dispenser (Tecan) to a final concentration range 3000-0.13 nM using the logarithmic dilution mode in 2 replicates. Full inhibition (3000 nM commercial reference inhibitor) and DMSO vehicle control wells were also included on the same plate. All volumes were normalized to the final DMSO concentration of 2% of the reaction volume. Next, 5 μL of H2O was added to each well of the plate.
The enzyme mixture was prepared to obtain the following concentrations: • GCN2—30 nM • unloaded tRNA—0.3 nM • HEPES (pH=7.0)—100 mM • MgCl2—20 mM; MnCl2—10 mM
The mixture was applied by adding 5 μL to each well of the plate. The enzyme and the tested compound were then incubated at room temperature for 20 min while shaking at 450 rpm.
The substrate mixture was prepared to obtain the following concentrations: • GFP-eIF2α—240 nM • ATP—900 μM or 30 μM • HEPES (pH=7.0)—50 mM • MgCl2—10 mM • MnCl2—5 mM.
The mixture was applied by adding 5 μL to each well of the plate. Thus, the final concentrations of the 15 μL reaction mixture were as follows: • GCN2—10 nM • unloaded tRNA—0.1 nM • GFP-eIF2α—80 nM • ATP—300 μM or 10 μM • HEPES (1 M, pH=7.0)—50 mM • MgCl2—10 mM • MnCl2—5 mM.
The reaction was allowed to proceed at room temperature for 30 min while shaking at 450 rpm.
The antibody mixture was prepared to obtain the following concentrations: • Na2EDTA·2H2O—40 mM, in TR-FRET Dilution Buffer (Life technologies) • Tb—anti-peIF2a antibodies—4 nM.
The mixture was applied by adding 15 μL to each well. The plate was then incubated at room temperature for 60 min while shaking at 450 rpm and then read using Tecan Spark reader using specific TR-FRET filters.
The analysis of the GFP/Tb fluorescence results was conducted with GraphPad Prism to determine IC50 for each of the example compounds using 4-parameter model: log(inhibitor) vs. response-variable slope. IC50 and K, values were calculated in the usual way. The assay was carried out between 1 and 15 times. The results in the table below are the mean results from replicate assays for the compound in question, where applicable.

[2] = Kinetic solubility in PBS buffer pH 7.4; type: physicochemical; settings: aqueous buffer, kinetic from dmso stock; PBS buffer pH 7.4, 90 minutes at room temperature, from 10 mM DMSO stock
Experimental: The kinetic solubility assay investigates a solubility based on the amount of material which remains in solution after a precipitation process. […] Assay is performed using Multiscreen Vacuum Manifold. A buffer of interest (in standard protocol PBS buffer at pH=7.4 is used) is spiked with stock solution and incubated for 90 minutes at room temperature. After that time solution/suspension is filtrated. The concentration of each compound is determined on the base of prepared calibration curve using UV-VIS spectrophotometry method. The assay is made in triplicate.
Buffer of interest: 0.24 g of KH2PO4, 1.44 g of Na2HPO4, 0.2 g of KCl and 8 g NaCl and dissolve in 1 L distilled H2O; adjust pH to appropriate value (pH 7.4). 190 μl of buffer of interest was dispensed into the wells of a 96 well filter plate, followed by 10 μl of compound (10 mM stock solution in DMSO). The plate was shaken gently at room temperature for 90 minutes at 500 rpm using a BioSan, Plate Shaker-Thermostat, PST-60 HL-4. After 90 minutes, the plate was filtered using a vacuum manifold and vacuum pump. 100 μl of each filtrate and 100 μl acetonitrile was transferred to a 96 well UV-visible light transparent plate and the UV-visible absorption spectrum was measured using a Biotek Synergy 2 multiplate reader from 250-500 nm, interval range 10 nm. The amount of test compound was calculated using a calibration curve prepared by serial dilution of compounds in equivalent amounts of DMSO and acetonitrile.

[3] = read-out: GCN2 IC50 (nM) 10 uM ATP, 10 uM ATP
[4] = read-out: GCN2 IC50 (nM) 300 uM ATP, 300 uM ATP
[5] = read-out: GCN2 Ki (nM) 10 uM ATP, 10 uM ATP
[6] = read-out: GCN2 Ki (nM) 300 uM ATP, 300 uM ATP

T1 sequence (Q9P2K8 whole entry): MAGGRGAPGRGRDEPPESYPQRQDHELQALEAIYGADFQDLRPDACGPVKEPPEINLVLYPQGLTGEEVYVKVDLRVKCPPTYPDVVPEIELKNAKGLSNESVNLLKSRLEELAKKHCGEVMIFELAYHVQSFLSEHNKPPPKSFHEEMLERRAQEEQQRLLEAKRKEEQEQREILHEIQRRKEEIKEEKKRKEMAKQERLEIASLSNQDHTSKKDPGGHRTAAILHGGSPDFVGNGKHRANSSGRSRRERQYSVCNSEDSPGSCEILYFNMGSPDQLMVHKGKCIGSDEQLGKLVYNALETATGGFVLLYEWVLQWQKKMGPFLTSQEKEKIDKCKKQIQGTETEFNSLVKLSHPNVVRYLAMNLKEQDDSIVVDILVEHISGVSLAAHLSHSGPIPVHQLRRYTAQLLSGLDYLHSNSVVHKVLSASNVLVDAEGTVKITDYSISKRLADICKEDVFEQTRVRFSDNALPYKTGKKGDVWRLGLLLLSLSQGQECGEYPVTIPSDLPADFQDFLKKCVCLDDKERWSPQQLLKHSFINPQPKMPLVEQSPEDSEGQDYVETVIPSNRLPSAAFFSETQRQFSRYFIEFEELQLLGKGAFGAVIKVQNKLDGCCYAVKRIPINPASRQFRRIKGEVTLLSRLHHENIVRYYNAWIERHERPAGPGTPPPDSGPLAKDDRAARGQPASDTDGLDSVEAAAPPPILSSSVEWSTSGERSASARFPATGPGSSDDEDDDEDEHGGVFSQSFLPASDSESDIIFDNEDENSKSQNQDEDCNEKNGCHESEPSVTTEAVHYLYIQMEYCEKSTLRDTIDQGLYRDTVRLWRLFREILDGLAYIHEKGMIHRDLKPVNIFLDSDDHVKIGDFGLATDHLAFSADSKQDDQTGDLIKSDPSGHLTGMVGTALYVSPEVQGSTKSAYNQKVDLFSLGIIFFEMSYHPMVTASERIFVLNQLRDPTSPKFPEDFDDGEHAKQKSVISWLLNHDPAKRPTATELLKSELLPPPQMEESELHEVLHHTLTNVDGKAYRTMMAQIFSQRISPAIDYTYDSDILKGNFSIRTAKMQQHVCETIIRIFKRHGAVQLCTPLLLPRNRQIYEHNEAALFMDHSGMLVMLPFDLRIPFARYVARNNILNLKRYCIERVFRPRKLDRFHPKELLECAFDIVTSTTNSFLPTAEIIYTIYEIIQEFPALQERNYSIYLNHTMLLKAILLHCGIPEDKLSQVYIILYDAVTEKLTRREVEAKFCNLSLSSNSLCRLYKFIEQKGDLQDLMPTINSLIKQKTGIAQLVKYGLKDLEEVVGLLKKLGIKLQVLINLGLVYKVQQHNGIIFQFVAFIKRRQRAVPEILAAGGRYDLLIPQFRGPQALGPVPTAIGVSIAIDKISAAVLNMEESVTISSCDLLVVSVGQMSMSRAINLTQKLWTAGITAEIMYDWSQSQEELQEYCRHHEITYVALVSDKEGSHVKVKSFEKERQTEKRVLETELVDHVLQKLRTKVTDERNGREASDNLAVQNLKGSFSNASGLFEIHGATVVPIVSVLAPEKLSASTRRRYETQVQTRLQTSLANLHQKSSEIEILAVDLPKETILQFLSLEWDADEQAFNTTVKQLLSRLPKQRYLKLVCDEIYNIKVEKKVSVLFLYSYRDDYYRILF

In the case of `COc1ncc(Cl)cc1S(=O)(=O)Nc1nccc(C#Cc2cncc3c2cnn3C)c1F` [Example 20, 5-chloro-N-[3-fluoro-4-(2-{1-methyl-1H-pyrazolo[3,4-c]pyridin-4-yl}ethynyl)pyridin-2-yl]-2-methoxypyridine-3-sulfonamide], the IC50 [1, 3] is reported as 14.5 nM, the IC50 [1, 4] is reported as 324 nM and the Ki [1, 5] is reported as 4.6 nM. The Ki [1, 6] was 4.9 nM and the solubility kinetic at 90 min [2] was 0.0706 mg/mL.
`COc1ncc(Cl)cc1S(=O)(=O)Nc1nccc(C#Cc2cncc3[nH]ncc23)c1F` [Example 21, 5-chloro-N-[3-fluoro-4-(2-{1H-pyrazolo[3,4-c]pyridin-4-yl}ethynyl)pyridin-2-yl]-2-methoxypyridine-3-sulfonamide] showed an IC50 [1, 4] of 158 nM, a Ki [1, 6] of 2.4 nM and a solubility kinetic at 90 min [2] of 0.221 mg/mL.
Molecule `COc1ncc(Cl)cc1S(=O)(=O)Nc1nccc(C#Cc2cncc3nn(C)cc23)c1F` [Example 22, 5-chloro-N-[3-fluoro-4-(2-{2-methyl-2H-pyrazolo[3,4-c]pyridin-4-yl}ethynyl)pyridin-2-yl]-2-methoxypyridine-3-sulfonamide] has an IC50 [1, 4] of 98.6 nM, a Ki [1, 6] of 1.5 nM and a solubility kinetic at 90 min [2] of 0.229 mg/mL.
Molecule `COc1ncc(Cl)cc1S(=O)(=O)Nc1nccc(C#Cc2cncc3cnn(C)c23)c1F` [Example 24, 5-chloro-N-[3-fluoro-4-(2-{1-methyl-1H-pyrazolo[4,3-c]pyridin-7-yl}ethynyl)pyridin-2-yl]-2-methoxypyridine-3-sulfonamide] has an IC50 [1, 4] of 169 nM, a Ki [1, 6] of 2.6 nM and a solubility kinetic at 90 min [2] of 0.0803 mg/mL.
Work on `CNc1ncc(C#Cc2ccnc(NS(=O)(=O)c3cc(Cl)cnc3OC)c2F)cn1` [Example 25, 5-chloro-N-(3-fluoro-4-{2-[2-(methylamino)pyrimidin-5-yl]ethynyl}pyridin-2-yl)-2-methoxypyridine-3-sulfonamide] yielded an IC50 [1, 4] of 110 nM, a Ki [1, 6] of 1.7 nM and a solubility kinetic at 90 min [2] of 0.208 mg/mL.
Molecule `COc1ncc(Cl)cc1S(=O)(=O)Nc1nccc(C#Cc2cnc3cnccn23)c1F` [Example 26, 5-chloro-N-[3-fluoro-4-(2-{imidazo[1,2-a]pyrazin-3-yl}ethynyl)pyridin-2-yl]-2-methoxypyridine-3-sulfonamide] has an IC50 [1, 4] of 556 nM, a Ki [1, 6] of 8.5 nM and a solubility kinetic at 90 min [2] of 0.241 mg/mL.
`COc1ncc(Cl)cc1S(=O)(=O)Nc1nccc(C#Cc2cnc3[nH]ncc3n2)c1F` [Example 27, 5-chloro-N-[3-fluoro-4-(2-{1H-pyrazolo[3,4-b]pyrazin-5-yl}ethynyl)pyridin-2-yl]-2-methoxypyridine-3-sulfonamide] gave an IC50 [1, 4] of 225 nM, a Ki [1, 6] of 3.4 nM and a solubility kinetic at 90 min [2] of 0.225 mg/mL.
`COc1ncc(Cl)cc1S(=O)(=O)Nc1nccc(C#Cc2cnc3[nH]c(=O)[nH]c3n2)c1F` [Example 28, 5-chloro-N-[3-fluoro-4-(2-{2-oxo-1H,2H,3H-imidazo[4,5-b]pyrazin-5-yl}ethynyl)pyridin-2-yl]-2-methoxypyridine-3-sulfonamide] showed an IC50 [1, 4] of 174 nM, a Ki [1, 6] of 2.7 nM and a solubility kinetic at 90 min [2] of 0.231 mg/mL.
Molecule `COc1ncc(Cl)cc1S(=O)(=O)Nc1nccc(C#Cc2cnc3[nH]cnc3c2)c1F` [Example 29, 5-chloro-N-[3-fluoro-4-(2-{3H-imidazo[4,5-b]pyridin-6-yl}ethynyl)pyridin-2-yl]-2-methoxypyridine-3-sulfonamide] has an IC50 [1, 4] of 654 nM, a Ki [1, 6] of 10 nM and a solubility kinetic at 90 min [2] of 0.231 mg/mL.
In the case of `COc1ncc(Cl)cc1S(=O)(=O)Nc1nccc(C#Cc2cnc3ccnn3c2)c1F` [Example 30, 5-chloro-N-[3-fluoro-4-(2-{pyrazolo[1,5-a]pyrimidin-6-yl}ethynyl)pyridin-2-yl]-2-methoxypyridine-3-sulfonamide], the IC50 [1, 4] is reported as 160 nM, the Ki [1, 6] is reported as 2.4 nM and the solubility kinetic at 90 min [2] is reported as over 0.245 mg/mL.
In the case of `COc1ncc(Cl)cc1S(=O)(=O)Nc1nccc(C#Cc2cnn3cccnc23)c1F` [Example 31, 5-chloro-N-[3-fluoro-4-(2-{pyrazolo[1,5-a]pyrimidin-3-yl}ethynyl)pyridin-2-yl]-2-methoxypyridine-3-sulfonamide], the IC50 [1, 4] is reported as 98.9 nM, the Ki [1, 6] is reported as 1.5 nM and the solubility kinetic at 90 min [2] is reported as over 0.243 mg/mL.
Work on `COc1ncc(Cl)cc1S(=O)(=O)Nc1nccc(C#Cc2cnc3[nH]c(=O)[nH]c3c2)c1F` [Example 32, 5-chloro-N-[3-fluoro-4-(2-{2-oxo-1H,2H,3H-imidazo[4,5-b]pyridin-6-yl}ethynyl)pyridin-2-yl]-2-methoxypyridine-3-sulfonamide] yielded an IC50 [1, 4] of 48.1 nM, a Ki [1, 6] of 0.7 nM and a solubility kinetic at 90 min [2] of 0.0401 mg/mL.
`COc1ncc(Cl)cc1S(=O)(=O)Nc1nccc(C#Cc2cnc3[nH]nc(C)c3c2)c1F` [Example 33, 5-chloro-N-[3-fluoro-4-(2-{3-methyl-1H-pyrazolo[3,4-b]pyridin-5-yl}ethynyl)pyridin-2-yl]-2-methoxypyridine-3-sulfonamide] showed an IC50 [1, 3] of 4.2 nM, an IC50 [1, 4] of 21.7 nM and a Ki [1, 5] of 1.3 nM. The Ki [1, 6] was 0.3 nM and the solubility kinetic at 90 min [2] was 0.245 mg/mL.
For `COc1ncc(Cl)cc1S(=O)(=O)Nc1nccc(C#Cc2cnc(N)nc2C)c1F` [Example 34, N-{4-[2-(2-amino-4-methylpyrimidin-5-yl)ethynyl]-3-fluoropyridin-2-yl}-5-chloro-2-methoxypyridine-3-sulfonamide], the IC50 [1, 4] was 658 nM, the Ki [1, 6] was 10 nM and the solubility kinetic at 90 min [2] was 0.238 mg/mL.
Molecule `COc1ncc(Cl)cc1S(=O)(=O)Nc1nccc(C#Cc2cnc3[nH]c(=O)n(C)c3c2)c1F` [Example 36, 5-chloro-N-[3-fluoro-4-(2-{1-methyl-2-oxo-1H,2H,3H-imidazo[4,5-b]pyridin-6-yl}ethynyl)pyridin-2-yl]-2-methoxypyridine-3-sulfonamide] has an IC50 [1, 4] of 182 nM, a Ki [1, 6] of 2.8 nM and a solubility kinetic at 90 min [2] of 0.24 mg/mL.
Work on `COc1ncc(Cl)cc1S(=O)(=O)Nc1nccc(C#Cc2cnc3[nH]nc(OC)c3c2)c1F` [Example 37, 5-chloro-N-[3-fluoro-4-(2-{3-methoxy-1H-pyrazolo[3,4-b]pyridin-5-yl}ethynyl)pyridin-2-yl]-2-methoxypyridine-3-sulfonamide] yielded an IC50 [1, 4] of 20.9 nM, a Ki [1, 6] of 0.3 nM and a solubility kinetic at 90 min [2] of over 0.244 mg/mL.
`COc1ncc(Cl)cc1S(=O)(=O)Nc1nccc(C#Cc2cnc(N)c3nccnc23)c1F` [Example 38, N-[4-(2-{5-aminopyrido[3,4-b]pyrazin-8-yl}ethynyl)-3-fluoropyridin-2-yl]-5-chloro-2-methoxypyridine-3-sulfonamide] showed an IC50 [1, 4] of 55.3 nM, a Ki [1, 6] of 0.8 nM and a solubility kinetic at 90 min [2] of 0.245 mg/mL.
